Broadly, the EC50 is the concentration at which the effect is half-maximal.

Consider four molecules from ChEMBL document CHEMBL3739291, “3-AminooxazolidinoneAHL analogs as hydrolytically-stable quorum sensingagonists in Gram-negative bacteria” (Medchemcomm, 2015).

For data set [1], the target named is T1, CviR transcriptional regulator (Chromobacterium violaceum) (UniProt D3W065).
T1 sequence (whole entry): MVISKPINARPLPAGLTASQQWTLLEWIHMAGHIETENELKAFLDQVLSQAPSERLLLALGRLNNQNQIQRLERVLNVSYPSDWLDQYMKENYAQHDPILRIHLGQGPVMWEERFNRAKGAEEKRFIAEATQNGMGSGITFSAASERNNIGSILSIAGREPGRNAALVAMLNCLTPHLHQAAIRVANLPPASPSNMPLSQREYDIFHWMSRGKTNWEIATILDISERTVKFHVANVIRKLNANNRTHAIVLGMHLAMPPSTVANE
The data set is described as follows: Agonist activity at Chromobacterium violaceum CV026 CviR assessed as production of violacein at 20 uM preincubated at 32 degC for day 1 followed by further incubation at 25 degC on day 2 by agar plate assay.

For data set [2], the target named is T1, CviR transcriptional regulator (Chromobacterium violaceum). The data set is described as follows: Antagonist activity at Chromobacterium violaceum CV026 CviR assessed as inhibition of C4-HSL-induced violacein production preincubated at 32 degC for day 1 followed by further incubation at 25 degC on day 2 by agar plate assay.
The nature of data set [3]: Stability in 180 mM Tris-HCl buffer at pH 8 measured for 3 hrs by HPLC analysis. The format is physicochemical. Particulars: pH 8, 3 h.
Data set [4] is described as follows: Agonist activity at Escherichia coli JM109 LasR assessed as induction of bioluminescence after 8 hrs by luminometric analysis.
Data set [5] has as its target T1, CviR transcriptional regulator (Chromobacterium violaceum). Put plainly: Antagonist activity at Chromobacterium violaceum CV026 CviR assessed as inhibition of C4-HSL-induced violacein production at 2 uM preincubated at 32 degC for day 1 followed by further incubation at 25 degC on day 2 by agar plate assay.

Calls of active or inactive are those of the source. The calls are words filed in the database; no cut-off is given here.

For the molecule `CCCC(=O)NN1CCOC1=O`, the result in data set [1] was Active.
On the same count and under the same terms, next, `CCCC(=O)N[C@H]1CCOC1=O`: “Active”.
`CCCCCCCCCC(=O)CC(=O)NN1CCOC1=O`: the inhibition entry in data set [2] was “Active”. Besides, the Stability result in data set [3] was “Stable”. The EC50 in data set [4] is 2.1 nM.
Turning to `CCCCCCCCCC(=O)CC(=O)N[C@H]1CCOC1=O`, the inhibition entry in data set [5] is “Active”. The Stability entry in data set [3] is “Stable”. The EC50 in data set [4] is 1.5 nM.
